According to patent US11925611B2, “Use of ZT-1A and analogs thereof to prevent and/or treat neurodegenerative and neurocognitive disorders” (United States Government as Represented by the Department …, priority 2021, dated 2024):

Legend:
BCAS mice [1] = test: Morris water maze (MWM) test in modified BCAS mice; format: in vivo, C57BL/6J mice
Source text: (§1) Clinically, most patients with intracranial atherosclerotic stenosis suffer from permanent stenosis without occlusion. Therefore, to mimic clinical atherosclerotic stenosis with permanent carotid artery (CCA) hypoperfusion, a modified BCAS model was adapted by ligating the CCA guided with a 30 gauge needle (0.31 mm diameter) in the right CCA and a 33 gauge needle (0.21 mm diameter) in the left CCA with a 4-0 silk suture. […] Next, changes of total NKCC1 (tNKCC1) protein expression were surveyed in different brain regions at 2 and 4 wks post-surgery by immunofluorescence staining (IF). […] Therefore, in the rest of the study, the investigation was focused on its association to white matter GFAP^+ astrogliosis and lesion of CC and external capsul (EC) tracks. […] However, by 2 wks post-BCAS surgery, tNKCC1 immunofluorescence intensity in the CC tracks was increased by ˜3 folds (p<0.05), and further elevated to ˜6 folds by 4 wks (p<0.05, arrowhead). Data are mean±SEM, n=4, *p<0.05, **p<0.01. […] The upregulation of tNKCC1 and GFAP protein expression in the CC is correlated, with a Pearson's correlation coefficient of r=0.9 (p<0.001). […] In contrast, no elevated tNKCC1 protein was detected either in Iba1^+ microglia/macrophages or in Olig2+ oligodendrocytes (OL) at 4 wks post-BCAS surgery (FIG. 1D). Without wishing to be bound by theory, these findings indicate that upregulation of NKCC1 expression and activity in reactive astrocytes may play a critical role in white matter inflammation, OL death, and demyelination after BCAS. Next, whether administration of SPAK inhibitor ZT-1a reduces WML and improves cognitive functions was examined. Starting at 14 days after BCAS surgery in mice (male), either vehicle DMSO (Veh, 2 ml/kg) or ZT-1a (5 mg/kg, every 72 h, i.p) was administered every 3 days, until they were sacrificed at day 35 post-BCAS (FIG. 3A). […] Motor functions are similar in all groups and average swimming speeds were not different in the Sham-, Veh- and ZT-1a-treated mice. Data are mean±SEM, n=6 (Sham and ZT-1a) or 5 (Veh), *p<0.01 vs. sham, *p<0.05 vs. Veh.

BCAS mice [2] = test: Ex-vivo MRI DTI analysis of white matter lesion in BCAS mice; design: species or system C57BL/6J mice; conditions: 4 wks post-BCAS, vs Veh-control
Source text: as §1, with “Veh. After completion of the neurological function tests in the Veh-control and ZT-1a-treated BCAS cohort mice (as shown in FIG. 3A and FIG. 3B), ex-vivo brains were harvested for MRI DTI (diffusion tensor imaging) analysis of WML at 4 wks post-BCAS detected by DTI. The fractional anisotropy (FA), radial diffusivity (RD), and mean diffusivity (MD) of the CC and EC tracks were analyzed. Representative images of the DEC maps in FIG. 4A show severe loss of axonal fibers (arrowheads) in the CC and left EC of the Veh-control brains. […] These observations are consistent with changes of FA, RD, and MD values (FIG. 4B). […] Then MBP expression levels were measured in these brains by immunostaining. […]” for “Veh.”

Coil BCAS mice = test: Coil BCAS model, delayed administration (NOR, MBP immunostaining, CBF, body weight); format: in vivo
Procedure: The efficacy of administration of ZT-1a starting at 4 wks post-BCAS surgery, when matter demyelination has reached its peak, was examined next. To test the reproducibility of these findings, in this pilot study, the Coil BCAS model was used by placing two microcoils (0.18 mm diameter) in each CCAs, a well-established model with CBF reduction and accompanied by ischemic lesion to white matter tracks, cortex, and hippocampus. Either vehicle DMSO (Veh, 2 ml/kg) or ZT-1a (5 mg/kg, every 72 h, i.p) was administered at 4-8 wks post-BCAS (i.e., during 28-56 days after coil-BCAS, every 3 days) (FIG. 7A). […] Then MBP expression levels were examined in these brains by immunostaining. […] Data are mean±SEM, n=5-8, *p<0.01 vs. sham, *p<0.05 vs. Veh.

For `Cc1cc(C(C#N)c2ccc(Cl)cc2)c(Cl)cc1NC(=O)c1cc(Cl)ccc1O` (centres unmarked) [1a (ZT-1a)], which “escape latency in MWM test” value (BCAS mice [1]; 5 mg/kg i.p. every 72 h from day 14 after BCAS, 4 wks post-BCAS, vs Veh-treated BCAS mice) is on record?
The value was “significantly less escape latency”.

And the “time in the target quadrant, spatial probe trial” value (BCAS mice [1]; 5 mg/kg i.p. every 72 h from day 14 after BCAS, mean±SEM, n=6, Veh 15.3±1.2 sec, p<0.05)?
The value was 26.3 ± 4.3 s.

And the average swimming speeds (BCAS mice [1]; Sham-, Veh- and ZT-1a-treated mice compared)?
The average swimming speeds was “not different”.

And the “integrity of the CC and EC tracks (DEC maps)” value (BCAS mice [2]; 5 mg/kg i.p. every 72 h, both hemispheres)?
The value was “better-preserved integrity”.

What about the “fractional anisotropy (FA) values” (BCAS mice [2]; p<0.05) of the same molecule?
Its value is “significantly higher”.

What about the “mean diffusivity (MD) values” (BCAS mice [2]; p<0.05) of the same molecule?
The value was “lower”.

And the “radial diffusivity (RD) values” (BCAS mice [2]; p<0.05)?
The value was “lower”.

What about the “memory function in novel objective recognition test (NOR)” value (Coil BCAS mice; 5 mg/kg i.p. every 72 h at 4-8 wks post-BCAS) of the same molecule?
The value was “no memory function impairment”.

What about the body weight changes (Coil BCAS mice; 5 mg/kg i.p. every 72 h at 4-8 wks post-BCAS, data not shown) of the same molecule?
Its body weight changes is “No body weight changes”.

And the “MBP levels in CC and EC tracts” value (Coil BCAS mice; delayed administration 4-8 wks post-BCAS, p<0.05)?
The value was “significantly increased”.

And the “cerebral blood flow (CBF)” value (Coil BCAS mice; delayed treatment for four weeks, by 8 wks post-BCAS)?
Its value is “significantly improved”.
